Reference: patent publication US20210204568A1, “CBD-[…]” (THC PHARM GMBH THE HEALTH CONCEPT, priority 2014, published 2021)

Test system: freely moving rats
Assay: Electropharmacogram (EEG spectral power and physical activity) of freely moving rats after a CBD liquid formulation
Format: in vivo, rat
Method: FIGS. 1 to 3 show electropharmacograms from electroencephalography (EEG) of adult rats (>3 months old), wherein a dosage of 1 mg/kg (body weight) (FIG. 1), 5 mg/kg (body weight (FIGS. 2), and 15 mg/kg (body weight) (FIG. 3) cannabidiol was administered in the form of a liquid formulation.
Under general anesthesia, four depth electrodes were implanted into the prefrontal cortex, the hippocampus, the striatum, and the reticular formation of the rats. From the head of the rats, signals are wirelessly transmitted by radio to a computer. At the same time, the physical activity is measured.
The signals are subjected to a frequency analysis, for example using the fast Fourier transform (FFT), and the frequency content of a signal is determined. In the case of EEG data, the spectrum is divided into multiple regions, which historically are denoted by delta, theta, alpha and beta.
After the division into seven frequency ranges ((1) to (7), see FIGS. 1-3), the changes in the electric output after administration of a liquid formulation according to the invention comprising cannabidiol can be quantified and, taking the signals of the four brain regions into consideration, a specific change pattern, referred to as the “electropharmacogram (supra)”, is obtained (Dimpfel W., Pharmacological classification of herbal extracts by means of comparison to spectral EEG signatures induced by synthetic drugs in the freely moving rat. Journal of Ethnopharmacology 2013, 149, 583-589).
Time-dependent progression of the electric output (“spectral power”) (ordinate) in percent from the 45-minute long pre-drug base line (values) in four brain regions of freely moving rats in the presence of a vehicle (4 ml/kg). The frequency ranges are depicted as bars on the abscissa, specifically delta (1), theta (2), alpha1 (3), alpha2 (4), beta1a (5), beta1b (6) and gamma spectral power (7) from left to right, depending on the named brain region, The statistical significance is represented in stars compared to the control group (vehicle): *=p<0.05; **=p<0.01.

[1] = dosage of 1 mg/kg to 5 mg/kg, adult rats
[2] = high dosages, 5 or 15 mg/kg (body weight)

## C=C(C)[C@@H]1CCC(C)=C[C@H]1c1c(O)cc(CCCCC)cc1O [CBD, 2-[1R-3-methyl-6-(1-methylethenyl]--cyclohexen-1-yl]-5-pentyl-1,3-benzenediol]
[1]
  duration for which the specific increase in gamma spectral power can be observed: at least 4 hours
  gamma spectral power in the hippocampus: not at all
Dosage of 1 mg/kg to 5 mg/kg, adult rats, FIG. 1
  gamma spectral power within the striatum: increase
Dosage of 15 mg/kg, adult rats, FIG. 3
  gamma spectral power: no specific increase
[2]
  EEG pattern or electropharmacogram compared with drug classes: corresponds to that of certain antidepressants and analgesic drugs
  activity index: significant decrease
High dosages, 5 or 15 mg/kg (body weight), FIGS. 2 and 3
  effect according to the electropharmacogram: sedating effect
Lowest dosage, less than 5 mg/kg, preferably 1 mg/kg (body weight)
  effect according to the electropharmacogram: activating and invigorating effect
